# From patent US9061981B2, “Diphenyl substituted cyclohexane derivatives, useful as modulators of the estrogen receptors beta” (Acadia Pharmaceuticals Inc., priority 2011, dated 2015)
# Like-named read-outs stand apart in the source and are kept apart here.
# Legend:
# [1] = Metabolic stability in liver microsomes, human; assay type: in vitro ADME; conditions: low value = metabolically stable
# Method: (§1) Also the metabolic stability in liver microsomes was tested for some compounds.
# [2] = Metabolic stability in liver microsomes, rat; assay type: in vitro ADME; conditions: low value = metabolically stable
# Method: as §1
# [3] = system: L5/L6 spinal nerve ligation; test: Spinal nerve ligation model of neuropathic pain; assay type: in vivo, male Sprague-Dawley rats; conditions: s.c.
# Method: Spinal nerve ligation of the L5/L6 nerve was done as originally described by Kim and Chung, using male Sprague-Dawley rats. Allodynia was assessed by applying a light tactile stimulus (Von Frey hairs) to the plantar surface of the surgical paw until the 50% threshold is established. A positive response is recorded if the paw is sharply withdrawn. Eight VonFrey hairs were used (3.61, 3.84, 4.08, 4.31, 4.56, 4.74, 4.93 and 5.18).
# TNFα = test: ELISA for TNFα in PBMCs and brain homogenate after 6OHDA lesion; assay type: in vivo, rat; conditions: 6OHDA rats
# Method: (§2) Thus, Compound 8 was assessed to determine whether ERβ agonist treatment might alter the inflammatory profile following bilateral 6OHDA lesions of the SN. ELISAs for tumor necrosis factor α (TNFα), monocyte chemotactic protein 1 (MCP-1 aka CCL2), interleukin-6 (IL-6), and interleukin-1β were conducted in peripheral blood mononuclear cells (PBMCs) and brain tissue homogenates from sham or 6OHDA treated animals. […] Both TNFα and MCP-1 were elevated in PBMCs from 6OHDA animals (data not shown). Thus, these two markers were chosen for further examination. […] Treatment with Compound 8 prevented the rise in TNFα in both brain and PBMCs (FIG. 6). MCP-1 was elevated in PBMCs following 6OHDA when blood was taken on day 7 post-surgery, but not in brain homogenates taken on day 14 (following behavioral testing). The increase in MCP-1 in PBMCs was not prevented by Compound 8 treatment, even though the behavioral profile was normal. Thus, TNFα might be a maker of an inflammatory pathway triggered by 6OHDA infusion and prevented by treatment with an ERβ agonist in a manner that also prevents motor deficits and dopamine neuron loss in the substantia nigra.
# [4] = Initial toxicity studies, in vitro and in vivo
# [5] = Microsomal bioavailability (Table 2); assay type: in vitro ADME; conditions: read-out: Microsomal bioavailability F (%)
# [6] = Bioavailability after intravenous, oral and sublingual administration in rat; conditions: in vivo, rats
# Method: Similarly to the Example above, Compound 8 was also administered to rat intravenously, orally and sublingual. Also the prodrug of Compound 8, i.e. Compound 9, was administered. The bioavailability (% F) indicated for the prodrug Compound 9 is the results of measurements of the bioavailability for Compound 8, which Compound 9 is converted into upon administration. AUC 0-4 was used for calculation of the bioavailability.
# [7] = Brain to plasma ratio in rats; assay type: in vivo
# Taxol-induced allodynia = test: Taxol-induced neuropathy model; assay type: in vivo, male SD rats; conditions: 2 hours post-dose
# Method: Neuropathy was induced in male SD rats by 4×1 mg/kg consecutive daily doses of taxol as described (Naguib M, Diaz P, Xu J J, Astruc-Diaz F, Craig S, Vivas-Mejia P, Brown D L. MDA7: a novel selective agonist for CB2 receptors that prevents allodynia in rat neuropathic pain models. Br J. Pharmacol. 2008 December; 155(7):1104-16). The presence of tactile allodynia (von Frey filament 50% response threshold of <5 g) was confirmed prior to inclusion in the study. Drugs were administered sub-cutaneously (s.c.) except gabapentin was given intra-peritoneally (i.p.). Doses are given in mg/kg. * p<0.05.
# Allodynia was assessed by applying a light tactile stimulus (Von Frey hairs) to the plantar surface of the surgical paw until the 50% threshold was established. A positive response was recorded if the paw was sharply withdrawn. Eight VonFrey hairs were used (3.61, 3.84, 4.08, 4.31, 4.56, 4.74, 4.93 and 5.18). MPE (%) was calculated as [(Rdrug−Rveh)/(Rsham−Rveh)]*100% where Rveh was 4 and Rsham was 13. Repeat dosing (FIG. 10C) was performed by administering the indicated doses of Compound 8 once daily via the s.c. route. Efficacy was measured 2 hours post-dose.
# [8] = Bioavailability after intravenous and sublingual administration in male beagle dogs; assay type: in vivo; conditions: for half-life: 10 mg/kg
# Method: In this example, the sublingual bioavailability of Compound 8 was evaluated after intravenous and sublingual doses in male beagle dogs. The test compound was dosed at 1 and 10 mg/kg through intravenous and sublingual routes, respectively. Plasma samples were collected 10 min, 20 min, 30 min, 45 min, 1 hour, 2 hours, 4 hours, 8 hours, 12 hours and 24 hours post dose. Plasma levels were determined by LC-MS/MS analysis. A pre-study standard curve was analyzed to determine the specificity, range and lower limit of quantification of the LC-MS/MS method. The study samples were treated identically to the standards. Pharmacokinetic parameters were estimated by a non-compartmental model using WinNonlin v4.1 software.
# CFA-treated animals = test: Complete Freund's Adjuvant (CFA) model of chronic inflammation; assay type: in vivo, Rats; conditions: 10 mg/kg sc, 24 hrs after drug administration
# Method: Rats were treated with Complete Freund's Adjuvant (CFA). After 4 days (upon reaching stable inflammation), CFA-treated animals were treated with 10 mg/kg subcutaneously (sc) of Compound 8, incomplete Freund's Adjuvant or vehicle, respectively. Responses were measured 24 hrs after drug administration. […] Latencies, expressed in seconds (sec), were defined as the time needed for the animal to remove the treated paw from the hot surface.
# MCP-1 = test: ELISA for MCP-1 in PBMCs after 6OHDA lesion; assay type: in vivo, rat; conditions: 6OHDA rats, blood day 7 post-surgery
# Method: as §2
# [9] = dog intravenous 1 mg/kg vs parameters observed in rats
smiles,measurement,setting,value
Oc1ccc(C2(c3ccccc3Cl)CCCCC2)cc1F [Compound 957],microsomal CLint,[1],20 µL/min/mg
same,microsomal CLint,[2],450 µL/min/mg
"Oc1ccc(C2(c3ccccc3F)CCC(F)(F)CC2)cc1 [Compound 8, 4-(4,4-Difluoro-1-(2-fluorophenyl)cyclohexyl)phenol]",microsomal CLint,[1],11 µL/min/mg
same,allodynia (Von Frey 50% threshold),[3],reverses allodynia
same,6OHDA-induced increase of TNFα in PBMCs and brain,TNFα,blocked this increase
same,tolerability in initial toxicity studies,[4],well tolerated
same,Microsomal bioavailability (predicted from microsomes),[5],4.2%
same,bioavailability,"[6]; po, Compound 8 dosed orally, read-out: oral bioavailability",~8%
same,bioavailability,"[6]; Compound 8 dosed sublingually, read-out: sublingual bioavailability",79%
same,brain to plasma ratio,[7],good brain to plasma ratio
same,efficacy on repeat dosing,Taxol-induced allodynia; once daily s.c.,maintained over 5 days
same,effect on Taxol-induced allodynia,"Taxol-induced allodynia; s.c. (gabapentin i.p.), Compound 8 at 10 and 30 mg/kg",essentially complete reversal
same,microsomal CLint,[2],150 µL/min/mg
same,Cmax increase compared to rats,[8]; [9],2 fold
same,clearance decrease compared to rats,[8]; [9],2 fold
same,volume of distribution decrease compared to rats,[8]; [9],2 fold
same,half-life,"[8]; male, beagle, dog, plasma, dog, sublingual 10 mg/kg, read-out: average half-life (converted)",2.08 ± 0.5 h
same,half-life,"[8]; male, beagle, dog, plasma, dog, sublingual, as summarised, read-out: half life (converted)",2 h
same,bioavailability,"[8]; male, beagle, plasma, other: sublingual, dog, sublingual 10 mg/kg vs intravenous 1 mg/kg, read-out: overall percent bioavailability following sublingual dose",44%
same,clearance,"[8]; male, beagle, plasma, dog, intravenous 1 mg/kg",47 mL/min/kg
same,Cmax,"[8]; male, beagle, plasma, dog, intravenous 1 mg/kg, read-out: average maximum concentration (Cmax)",738 ± 199 ng/mL
same,Vd,"[8]; male, beagle, plasma, dog, intravenous 1 mg/kg, read-out: volume of distribution",3.5 ± 0.9 L/kg
same,Cmax,"[8]; male, beagle, plasma, dog, sublingual 10 mg/kg, read-out: Cmax",1060 ± 110 ng/mL
same,edema in the treated paw (inflammation),CFA-treated animals,inhibits hyperalgesia and inflammation
same,"thermal hyperalgesia, 52° C. hot plate latency",CFA-treated animals,inhibits hyperalgesia
same,6OHDA-induced increase of MCP-1 in PBMCs,MCP-1,not prevented
